From ChEMBL document CHEMBL1201862, “PubChem BioAssay data set” (2004)
Activity calls are given as the source filed them.

How the values were obtained:
[1] = A549 cell cytotoxicity, dose response, cytotoxicity control, plate reader, cherry-pick, antagonist series (AID 743412); type: functional, cell-based
[2] = target: Neurotensin receptor type 1 (Homo sapiens, UniProt P30989); type: functional;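 also: Image-based confirmatory dose-response assay measuring agonist activity at NTR1; NTR1-expressing U2OS osteosarcoma cells imaged for beta-arrestin GFP spot formation; agonist potency where compounds increase beta-arrestin recruitment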
[3] = viability loss in HEK293 cells – cell-based, plate reader, cherry-picked samples, cytotoxicity control, dose response (AID 743446); type: functional
[4] = blockade of melanocortin 4 receptor signaling – cell-based, plate reader, cherry pick, counter-screen for LGR2 antagonist project, dose response (AID 743444); type: functional;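 also: transfected HEK 293 cells stimulated with alpha-MSH peptide; potency of inhibitors of the alpha-MSH evoked signal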
[5] = toxicity toward HepG2 liver cells – cell-based, plate reader, cherry-pick, antagonist series, cytotoxicity control, dose response (AID 743416); type: functional
[6] = blockers of bursicon-stimulated LGR2 cAMP reporter – cell-based, HEK293, CRE-luciferase reporter, cherry pick, set 2, dose response (AID 743343); type: functional;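 also: transfected cells were stimulated with diluted bursicon conditioned medium after compound addition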
[7] = target: Lysosomal acid glucosylceramidase (Homo sapiens, UniProt P04062); assay: Dose response cell-based high throughput screening assay to identify enhancers of beta-glucosidase activity. [Related pubchem assays: 784 ]; type: functional
[8] = test system: Staphylococcus aureus; assay: Inhibitors of Bacterial Quorum Sensing Structure Activity Relationship (SAR) Analysis: Dose Response Assay. [Related pubchem assays: 700, 527 ]; type: functional, organism-based
[9] = target: Cytochrome P450 3A4 (Homo sapiens, UniProt P08684);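 also: CYP3A4 tested as one member of a cytochrome P450 panel screen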
[10] = target: G2/mitotic-specific cyclin-B1 (Homo sapiens, UniProt P14635); assay: HeLa cell cycle G2/M accumulation – FACS, mechanism study for Wee1 degradation inhibitor project, late-stage follow-up, panel member Cyclin B Degradation (AID 2088)
[11] = target: Wee1-like protein kinase (Homo sapiens, UniProt P30291); assay: HeLa cell cycle G2/M accumulation – FACS, mechanism study for Wee1 degradation inhibitor project, late-stage follow-up, panel member Wee1 Degradation (AID 2088)
[12] = Trypanosoma cruzi growth suppression in host cells – NIH3T3 host cells, beta-gal luminescence, confirmation (AID 2044); type: functional, cell-based;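 also: intracellular parasites grown in NIH/3T3 mouse fibroblasts as host cells; luminescent beta-galactosidase reporter signal from transgenic T. cruzi replicating inside host cells; inhibitors lower the luminescence signal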
[13] = Cytotoxicity screening for potential Inhibitors of Bacterial Capsule Biogenesis. [Related pubchem assays (depositor defined):AID488970]; type: functional
[14] = NIH3T3 cell viability loss – ATP luminescence, mouse fibroblasts, counter-screen, dose response (AID 2010); type: functional, cell-based;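 also: cells exposed to compound for about 90 hours before reading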
[15] = target: Oxytocin receptor (Homo sapiens, UniProt P30559); assay: Fluorescence-based cell-based high throughput dose response assay for agonists of the Oxytocin Receptor (OXTR). [Related pubchem assays: 2435 (Primary screen (OXTR agonists in singlicate)), 434991 (Counterscreen (V1R agonists in triplicate)), 2482 (Summary (OXTR agonists)), 434963 (Confirmation screen (OXTR agonists in triplicate))]; type: functional
[16] = luciferase reporter signal suppression in cells – H4 neuroglioma cells, luminescence, dose response (AID 1990); type: functional, cell-based
[17] = target: Vasopressin V1a receptor (Homo sapiens, UniProt P37288); assay: Counterscreen for Oxytocin Receptor (OXTR) agonists: Fluorescence-based cell-based high throughput dose response assay to identify agonists of the vasopressin 1 receptor (V1R). [Related pubchem assays: 2435 (Primary screen (OXTR agonists in singlicate)), 434991 (Counterscreen (V1R agonists in triplicate)), 2482 (Summary (OXTR agonists)) …; type: functional
[18] = viability of uninfected HEp-2 cells – cell-based, HTS, cytotoxicity control for RSV inhibitor project, dose response (AID 2410); type: functional; conditions: human respiratory syncytial virus
[19] = target: Beta-2 adrenergic receptor (Homo sapiens, UniProt P07550); assay: ADRB2 activation measured by internalization – cell-based, FAP fluorogen, flow cytometry, cherry pick 1, dose response (AID 588763); type: functional
[20] = alpha-synuclein stem-loop luciferase translation blockers – H4 neuroglioma cells, luminescence, confirmation (AID 1988); type: functional, cell-based
[21] = Luminescence Cell-Based Dose Response HTS to Identify Inhibitors of 5'UTR Stem-Loop Driven Prion Protein mRNA Translation in H4 Neuroglioblastoma Cells. [Related pubchem assays: 1827 (Project Summary), 1813 (Primary HTS)]; type: functional
[22] = target: Cytochrome P450 2C9 (Homo sapiens, UniProt P11712); conditions: Potency
[23] = target: T1, Neuropeptides B/W receptor type 1 (Homo sapiens, UniProt P48145); assay: Fluorescence-based dose response cell-based high throughput screening assay to identify antagonists of the G-protein coupled receptor 7 (GPR7). [Related pubchem assays: 1952 (Screening assay (GPR7 antagonists).), 1880 (Summary AID.)]; type: functional
T1 sequence (P48145 whole entry): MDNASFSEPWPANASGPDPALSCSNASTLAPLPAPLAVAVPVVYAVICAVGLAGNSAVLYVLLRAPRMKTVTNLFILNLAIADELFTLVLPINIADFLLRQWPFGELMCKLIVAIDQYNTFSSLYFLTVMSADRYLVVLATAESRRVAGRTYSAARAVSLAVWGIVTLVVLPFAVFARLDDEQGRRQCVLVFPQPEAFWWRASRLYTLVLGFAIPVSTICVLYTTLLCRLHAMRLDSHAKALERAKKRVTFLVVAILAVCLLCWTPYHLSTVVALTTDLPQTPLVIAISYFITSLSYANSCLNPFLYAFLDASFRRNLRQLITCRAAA

[24] = target: Melanin-concentrating hormone receptor 1 (Homo sapiens, UniProt Q99705); assay: Fluorescence-based counterscreen for antagonists of the G-protein coupled receptor 7 (GPR7): cell-based high throughput dose response assay to identify antagonists of the melanin-concentrating hormone receptor 1 (MCHR1).; type: functional
[25] = target: T2, Rac GTPase-activating protein 1 (Homo sapiens, UniProt Q9H0H5); assay: blockers of MgcRacGAP-driven Rac1 GTP hydrolysis – biochemical, ADP Hunter fluorescence, primary and confirmatory, confirmation (AID 624330); type: functional
T2 sequence (Q9H0H5 whole entry): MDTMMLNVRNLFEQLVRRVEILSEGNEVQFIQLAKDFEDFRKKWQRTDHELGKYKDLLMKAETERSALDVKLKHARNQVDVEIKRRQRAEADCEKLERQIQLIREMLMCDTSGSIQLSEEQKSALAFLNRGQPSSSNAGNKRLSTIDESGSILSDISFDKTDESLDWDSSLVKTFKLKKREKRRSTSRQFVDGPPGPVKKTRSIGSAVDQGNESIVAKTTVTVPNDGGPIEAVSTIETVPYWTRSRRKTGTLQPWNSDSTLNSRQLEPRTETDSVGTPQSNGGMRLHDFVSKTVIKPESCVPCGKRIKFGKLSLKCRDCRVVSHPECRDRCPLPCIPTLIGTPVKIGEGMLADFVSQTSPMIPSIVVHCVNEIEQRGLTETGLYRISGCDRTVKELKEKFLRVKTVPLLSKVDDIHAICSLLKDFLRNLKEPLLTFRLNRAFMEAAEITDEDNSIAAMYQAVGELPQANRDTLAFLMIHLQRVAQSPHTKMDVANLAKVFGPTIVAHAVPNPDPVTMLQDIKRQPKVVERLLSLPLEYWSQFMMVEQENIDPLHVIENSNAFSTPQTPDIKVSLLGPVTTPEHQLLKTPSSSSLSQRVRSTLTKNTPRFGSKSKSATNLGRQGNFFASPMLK

[26] = target: T3, Dual specificity protein phosphatase 6 (Rattus norvegicus, UniProt Q64346); type: functional
T3 sequence (Q64346 whole entry): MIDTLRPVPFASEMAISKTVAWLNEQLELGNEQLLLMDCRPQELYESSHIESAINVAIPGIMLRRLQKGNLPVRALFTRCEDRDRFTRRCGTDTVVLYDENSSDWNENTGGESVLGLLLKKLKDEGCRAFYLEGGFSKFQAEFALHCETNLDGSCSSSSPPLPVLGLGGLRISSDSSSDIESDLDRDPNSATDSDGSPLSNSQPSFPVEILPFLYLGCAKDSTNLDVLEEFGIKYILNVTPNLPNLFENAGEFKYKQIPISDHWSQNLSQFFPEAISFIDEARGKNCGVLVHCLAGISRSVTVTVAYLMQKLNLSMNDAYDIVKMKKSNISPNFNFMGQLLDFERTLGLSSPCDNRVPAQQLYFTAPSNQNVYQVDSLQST

[27] = target: Bcl-2-like protein 10 (Homo sapiens, UniProt Q9HD36); assay: Concentration-response of Bcl-B inhibitors by biochemical FP with TR3 (AID 1243); type: functional
[28] = target: Glyceraldehyde-3-phosphate dehydrogenase (Homo sapiens, UniProt P04406)
[29] = target: Heat shock 70 kDa protein 1A (Homo sapiens, UniProt P0DMV8); assay: inhibition of Hsp70 binding activity – biochemical, fluorescence polarization, SAR follow-up (AID 1072)
[30] = target: T4, Tyrosine-protein phosphatase non-receptor type 7 (Homo sapiens, UniProt P35236); type: functional
T4 sequence (P35236 whole entry): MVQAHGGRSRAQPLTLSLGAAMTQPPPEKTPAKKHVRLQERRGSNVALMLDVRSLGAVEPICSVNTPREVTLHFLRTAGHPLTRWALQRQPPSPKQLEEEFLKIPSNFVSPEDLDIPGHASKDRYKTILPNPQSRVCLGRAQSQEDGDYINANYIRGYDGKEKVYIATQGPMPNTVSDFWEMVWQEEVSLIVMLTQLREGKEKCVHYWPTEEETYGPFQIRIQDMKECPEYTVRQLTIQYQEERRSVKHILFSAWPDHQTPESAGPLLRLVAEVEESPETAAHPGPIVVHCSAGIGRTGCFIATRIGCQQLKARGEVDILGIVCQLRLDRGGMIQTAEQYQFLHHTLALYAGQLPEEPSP

[31] = target: Heat shock cognate 71 kDa protein (Homo sapiens, UniProt P11142); assay: In Vitro Hsc70 Dose Response Fluorescence Polarization Assay. [Related pubchem assays: 1072 ]
[32] = target: T3, Dual specificity protein phosphatase 6
[33] = target: T5, Alkaline phosphatase, tissue-nonspecific isozyme (Homo sapiens, UniProt P05186)
T5 sequence (P05186 whole entry): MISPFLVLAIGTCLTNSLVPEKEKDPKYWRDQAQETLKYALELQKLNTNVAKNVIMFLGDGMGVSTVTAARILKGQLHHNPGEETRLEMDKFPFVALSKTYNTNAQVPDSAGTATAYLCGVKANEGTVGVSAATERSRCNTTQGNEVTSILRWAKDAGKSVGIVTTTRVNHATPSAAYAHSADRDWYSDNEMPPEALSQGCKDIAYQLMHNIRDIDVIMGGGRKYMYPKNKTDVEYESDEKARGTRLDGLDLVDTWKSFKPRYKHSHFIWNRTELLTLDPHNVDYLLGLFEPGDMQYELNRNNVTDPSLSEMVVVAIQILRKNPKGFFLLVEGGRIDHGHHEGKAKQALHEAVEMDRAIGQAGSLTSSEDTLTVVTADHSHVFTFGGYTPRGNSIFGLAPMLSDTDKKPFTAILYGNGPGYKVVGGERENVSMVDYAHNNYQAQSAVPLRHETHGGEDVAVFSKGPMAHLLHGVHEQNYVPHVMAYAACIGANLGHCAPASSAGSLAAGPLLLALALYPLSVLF

Wee1-like protein kinase, sequence (P30291 whole entry): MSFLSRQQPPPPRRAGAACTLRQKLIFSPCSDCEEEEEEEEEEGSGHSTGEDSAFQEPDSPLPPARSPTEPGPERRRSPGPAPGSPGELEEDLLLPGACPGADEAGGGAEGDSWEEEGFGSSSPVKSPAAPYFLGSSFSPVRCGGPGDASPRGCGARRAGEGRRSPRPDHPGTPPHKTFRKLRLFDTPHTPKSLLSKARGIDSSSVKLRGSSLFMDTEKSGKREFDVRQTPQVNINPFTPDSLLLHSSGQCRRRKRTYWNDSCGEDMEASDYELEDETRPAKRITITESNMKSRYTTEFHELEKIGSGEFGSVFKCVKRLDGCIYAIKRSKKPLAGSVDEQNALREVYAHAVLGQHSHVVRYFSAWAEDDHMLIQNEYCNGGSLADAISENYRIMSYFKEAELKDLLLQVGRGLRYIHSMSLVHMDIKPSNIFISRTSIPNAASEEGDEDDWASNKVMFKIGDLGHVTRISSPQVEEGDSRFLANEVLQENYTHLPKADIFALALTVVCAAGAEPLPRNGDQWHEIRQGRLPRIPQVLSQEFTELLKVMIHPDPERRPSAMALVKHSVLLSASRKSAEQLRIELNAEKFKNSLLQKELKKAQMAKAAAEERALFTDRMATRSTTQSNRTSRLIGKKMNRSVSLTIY
Cytochrome P450 2C9, sequence (P11712 whole entry): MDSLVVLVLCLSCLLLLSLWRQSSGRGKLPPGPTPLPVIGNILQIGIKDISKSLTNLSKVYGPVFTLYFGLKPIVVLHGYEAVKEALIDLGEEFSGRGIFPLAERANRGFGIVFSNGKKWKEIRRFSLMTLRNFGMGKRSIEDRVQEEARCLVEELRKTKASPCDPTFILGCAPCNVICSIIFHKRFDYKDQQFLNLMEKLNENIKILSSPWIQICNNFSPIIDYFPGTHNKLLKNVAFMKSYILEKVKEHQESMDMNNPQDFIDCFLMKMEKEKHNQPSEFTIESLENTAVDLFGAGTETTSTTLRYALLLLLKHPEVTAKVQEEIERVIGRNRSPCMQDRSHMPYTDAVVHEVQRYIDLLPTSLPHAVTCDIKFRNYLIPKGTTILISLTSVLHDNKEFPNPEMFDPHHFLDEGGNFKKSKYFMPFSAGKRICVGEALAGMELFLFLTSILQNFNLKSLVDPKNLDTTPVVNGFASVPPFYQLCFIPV
Melanin-concentrating hormone receptor 1, sequence (Q99705 whole entry): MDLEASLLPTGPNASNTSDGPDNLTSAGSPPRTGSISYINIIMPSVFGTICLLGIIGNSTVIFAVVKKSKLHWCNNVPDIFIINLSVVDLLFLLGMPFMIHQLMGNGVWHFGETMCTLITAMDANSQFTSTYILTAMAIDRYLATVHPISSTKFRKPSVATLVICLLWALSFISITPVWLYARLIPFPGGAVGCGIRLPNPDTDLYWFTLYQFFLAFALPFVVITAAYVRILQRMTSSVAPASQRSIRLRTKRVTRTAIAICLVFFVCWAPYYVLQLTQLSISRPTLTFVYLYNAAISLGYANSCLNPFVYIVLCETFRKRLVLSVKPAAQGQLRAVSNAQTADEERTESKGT
Heat shock 70 kDa protein 1A, sequence (P0DMV8 whole entry): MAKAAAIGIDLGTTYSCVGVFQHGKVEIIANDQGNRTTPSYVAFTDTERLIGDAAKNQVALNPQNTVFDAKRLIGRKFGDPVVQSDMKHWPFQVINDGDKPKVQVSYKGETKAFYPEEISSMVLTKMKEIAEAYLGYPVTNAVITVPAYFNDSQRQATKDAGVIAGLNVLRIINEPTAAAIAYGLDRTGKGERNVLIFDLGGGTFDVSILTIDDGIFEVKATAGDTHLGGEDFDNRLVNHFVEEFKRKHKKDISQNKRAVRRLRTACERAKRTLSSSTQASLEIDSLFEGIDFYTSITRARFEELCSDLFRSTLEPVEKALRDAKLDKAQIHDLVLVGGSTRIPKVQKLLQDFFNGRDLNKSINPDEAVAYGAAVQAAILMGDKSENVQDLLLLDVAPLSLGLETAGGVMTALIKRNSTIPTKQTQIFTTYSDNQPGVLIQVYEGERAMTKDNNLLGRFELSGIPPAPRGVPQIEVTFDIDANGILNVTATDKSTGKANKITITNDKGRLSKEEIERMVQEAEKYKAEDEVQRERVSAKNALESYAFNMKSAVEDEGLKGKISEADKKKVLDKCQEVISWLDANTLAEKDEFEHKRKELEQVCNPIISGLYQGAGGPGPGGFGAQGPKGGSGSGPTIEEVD
Bcl-2-like protein 10, sequence (Q9HD36 whole entry): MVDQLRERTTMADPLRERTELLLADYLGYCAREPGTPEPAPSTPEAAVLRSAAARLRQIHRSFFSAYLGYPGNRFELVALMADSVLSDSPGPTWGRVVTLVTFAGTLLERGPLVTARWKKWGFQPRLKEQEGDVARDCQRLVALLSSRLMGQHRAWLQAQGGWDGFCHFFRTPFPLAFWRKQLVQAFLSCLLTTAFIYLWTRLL
Neurotensin receptor type 1, sequence (P30989 whole entry): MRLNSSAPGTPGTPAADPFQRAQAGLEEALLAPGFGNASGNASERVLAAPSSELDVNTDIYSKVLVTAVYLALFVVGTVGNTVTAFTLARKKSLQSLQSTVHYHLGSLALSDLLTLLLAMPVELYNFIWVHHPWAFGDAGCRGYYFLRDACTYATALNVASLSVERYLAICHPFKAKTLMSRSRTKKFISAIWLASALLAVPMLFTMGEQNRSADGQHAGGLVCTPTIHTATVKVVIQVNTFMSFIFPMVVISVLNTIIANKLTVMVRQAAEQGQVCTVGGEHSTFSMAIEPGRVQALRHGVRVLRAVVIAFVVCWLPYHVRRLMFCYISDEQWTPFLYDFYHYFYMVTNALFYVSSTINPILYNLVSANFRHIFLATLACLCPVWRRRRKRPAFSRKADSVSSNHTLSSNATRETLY
Lysosomal acid glucosylceramidase, sequence (P04062 whole entry): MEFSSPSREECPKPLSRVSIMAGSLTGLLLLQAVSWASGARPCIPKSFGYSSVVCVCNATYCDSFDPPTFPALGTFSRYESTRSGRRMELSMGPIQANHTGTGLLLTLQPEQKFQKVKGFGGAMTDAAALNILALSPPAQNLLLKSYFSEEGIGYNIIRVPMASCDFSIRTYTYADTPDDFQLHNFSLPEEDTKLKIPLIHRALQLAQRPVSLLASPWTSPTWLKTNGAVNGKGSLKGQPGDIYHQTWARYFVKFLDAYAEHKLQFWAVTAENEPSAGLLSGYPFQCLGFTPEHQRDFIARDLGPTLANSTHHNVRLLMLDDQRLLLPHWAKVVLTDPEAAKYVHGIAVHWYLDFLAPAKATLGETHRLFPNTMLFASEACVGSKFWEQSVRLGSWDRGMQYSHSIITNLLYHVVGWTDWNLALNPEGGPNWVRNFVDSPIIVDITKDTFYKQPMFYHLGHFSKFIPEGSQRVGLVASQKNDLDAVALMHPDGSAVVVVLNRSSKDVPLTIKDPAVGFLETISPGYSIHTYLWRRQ
Heat shock cognate 71 kDa protein, sequence (P11142 whole entry): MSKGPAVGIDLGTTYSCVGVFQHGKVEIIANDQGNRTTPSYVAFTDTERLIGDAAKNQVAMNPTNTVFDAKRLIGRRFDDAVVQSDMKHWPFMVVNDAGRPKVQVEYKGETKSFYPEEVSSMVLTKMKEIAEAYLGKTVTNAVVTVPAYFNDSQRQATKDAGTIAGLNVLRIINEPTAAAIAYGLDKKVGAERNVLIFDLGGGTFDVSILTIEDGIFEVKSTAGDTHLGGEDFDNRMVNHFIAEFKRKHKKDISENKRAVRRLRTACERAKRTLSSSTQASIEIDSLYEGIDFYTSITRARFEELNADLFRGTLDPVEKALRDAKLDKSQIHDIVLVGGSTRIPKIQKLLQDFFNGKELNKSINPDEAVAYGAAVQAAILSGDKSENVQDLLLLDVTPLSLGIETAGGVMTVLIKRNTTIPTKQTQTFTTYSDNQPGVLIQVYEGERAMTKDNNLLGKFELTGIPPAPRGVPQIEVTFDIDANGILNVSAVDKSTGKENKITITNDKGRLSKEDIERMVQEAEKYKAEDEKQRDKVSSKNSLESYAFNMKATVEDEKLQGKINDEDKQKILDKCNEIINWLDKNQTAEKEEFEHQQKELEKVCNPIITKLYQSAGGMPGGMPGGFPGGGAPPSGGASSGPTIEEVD
Beta-2 adrenergic receptor, sequence (P07550 whole entry): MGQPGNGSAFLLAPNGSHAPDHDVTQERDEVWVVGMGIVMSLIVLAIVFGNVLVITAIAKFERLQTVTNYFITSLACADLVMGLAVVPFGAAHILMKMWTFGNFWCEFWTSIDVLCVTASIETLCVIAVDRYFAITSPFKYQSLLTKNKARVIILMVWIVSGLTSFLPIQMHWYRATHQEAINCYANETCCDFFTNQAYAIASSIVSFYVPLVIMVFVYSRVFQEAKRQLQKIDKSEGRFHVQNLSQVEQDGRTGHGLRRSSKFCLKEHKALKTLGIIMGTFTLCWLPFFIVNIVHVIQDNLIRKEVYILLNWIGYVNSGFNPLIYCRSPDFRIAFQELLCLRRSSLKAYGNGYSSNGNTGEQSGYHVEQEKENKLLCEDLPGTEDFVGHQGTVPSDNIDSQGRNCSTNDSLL
Vasopressin V1a receptor, sequence (P37288 whole entry): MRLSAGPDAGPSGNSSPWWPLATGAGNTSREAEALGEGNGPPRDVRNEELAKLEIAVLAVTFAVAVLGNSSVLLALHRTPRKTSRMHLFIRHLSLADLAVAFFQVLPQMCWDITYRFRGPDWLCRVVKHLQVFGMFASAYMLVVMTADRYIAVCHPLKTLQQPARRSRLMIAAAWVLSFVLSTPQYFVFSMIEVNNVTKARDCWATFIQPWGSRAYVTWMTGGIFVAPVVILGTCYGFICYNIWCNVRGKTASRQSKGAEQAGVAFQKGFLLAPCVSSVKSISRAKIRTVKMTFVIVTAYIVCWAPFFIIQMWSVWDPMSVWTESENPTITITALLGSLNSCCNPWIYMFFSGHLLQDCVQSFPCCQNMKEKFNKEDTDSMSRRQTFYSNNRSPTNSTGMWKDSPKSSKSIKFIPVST

**Q.** What does the source list for `COc1ccc2sc(-c3ccc(S(C)(=O)=O)cc3)c(C#CCO)c2c1`?
**A.** AC50 [1]: 10.6 µM (active); EC50 [2]: 26.6 µM (inactive); AC50 [3]: 16.8 µM (active); AC50 [4]: 30.1 µM (active); AC50 [5]: 24.4 µM (active); AC50 [6]: 25 µM (active)

**Q.** For `CC(C)(C)NC(=O)CSc1nncn1NCc1ccccc1`, which EC50 [7] is on record?
**A.** > 50 µM (not active)

**Q.** With `Cc1cccc(Nc2ccccc2C(=O)O)c1C` [MEFENAMIC ACID] as the compound, how does the IC50 [8] read?
**A.** 1.34 µM (active)

**Q.** What about the AC50 [9] of the same compound?
**A.** inconclusive

**Q.** For `Cc1cc(O)nc(-n2nc(C)cc2NC(=O)c2ccc(F)cc2)n1`, which EC50 [10] is on record?
**A.** > 49.7 µM (inactive)

**Q.** And the EC50 [11]?
**A.** > 16.6 µM (active)

**Q.** For `COc1cc(/C=N/N=C(N)N)ccc1OCc1ccccc1Cl`, which EC50 [12] is on record?
**A.** 0.447 µM (active)

**Q.** And the CC50 [13]?
**A.** 6.19 µM (active)

**Q.** What about the EC50 [14] of the same compound?
**A.** > 60 µM (not active)

**Q.** Which results are given for `COc1ccc(CCNCC(O)Cn2c3ccccc3c3ccccc32)cc1OC` (stereo not drawn)?
**A.** EC50 [15]: 18.8 µM (not active); EC50 [16]: 8.76 µM (active); EC50 [17]: 12.7 µM (not active); CC50 [18]: 13.7 µM (active); EC50 [19]: 12.5 µM (inactive); EC50 [20]: > 120 µM (not active); EC50 [21]: > 120 µM (not active)

**Q.** For `C/C=C/OC(=O)NC(c1ccccc1)[C@]1(C(C)=O)CCOC1=O` (stereo partly drawn), which AC50 [22] is on record?
**A.** 0.794 µM (inconclusive)

**Q.** With `CN(C)c1ccc(Nc2ccc([N+](=O)[O-])cn2)cc1` as the compound, how does the IC50 [23] read?
**A.** > 43.8 µM (not active)

**Q.** And the IC50 [24]?
**A.** > 43.8 µM (not active)

**Q.** What about the IC50 [25] of the same compound?
**A.** 36.4 µM (active)

**Q.** Which IC50 [26] does the source give for `CC(=O)Nc1ccc2c(c1)C1C=CCC1C(C(=O)O)N2` (stereo not drawn) here?
**A.** > 100 µM (inactive)

**Q.** What about the EC50 [27] of the same compound?
**A.** 4.44 µM (active)

**Q.** And the IC50 [28]?
**A.** > 100 µM (not active)

**Q.** And the IC50 [29]?
**A.** 35.2 µM (active)

**Q.** What about the IC50 [30] of the same compound?
**A.** 21 µM (active)

**Q.** And the IC50 [31]?
**A.** > 100 µM (not active)

**Q.** What about the IC50 [32] of the same compound?
**A.** > 100 µM (inactive)

**Q.** For `C=CCNC(=S)NNC(=O)C(CCC(C)C)CC(C)O` (stereo not drawn), which EC50 [33] is on record?
**A.** 43.5 µM (active)
